Source: paper doi:10.64898/2025.12.09.693172, “Agonism of mosquito and human transient receptor potential ankyrin 1 (TRPA1) channels by the natural drimane sesquiterpene cinnamodial” (bioRxiv, 2025)

Key:
HsTRPA1 [1] = molecular target: T1, HsTRPA1 (Homo sapiens, UniProt O75762); assay: two-electrode voltage clamp, Xenopus oocytes; format: cell-based
T1 construct: gene TRPA1; cDNA construct from Saito and Tominaga, cRNA injected into Xenopus laevis oocytes; UniProt id printed for the modelled HsTRPA1 (residues 401-1119)

HsTRPA1 [2] = molecular target: T1, HsTRPA1; assay: two-electrode voltage clamp, Xenopus oocytes; format: cell-based; details: agonist, ND96 pH 7.5

T1 sequence (O75762 whole entry, the tested form may be a part): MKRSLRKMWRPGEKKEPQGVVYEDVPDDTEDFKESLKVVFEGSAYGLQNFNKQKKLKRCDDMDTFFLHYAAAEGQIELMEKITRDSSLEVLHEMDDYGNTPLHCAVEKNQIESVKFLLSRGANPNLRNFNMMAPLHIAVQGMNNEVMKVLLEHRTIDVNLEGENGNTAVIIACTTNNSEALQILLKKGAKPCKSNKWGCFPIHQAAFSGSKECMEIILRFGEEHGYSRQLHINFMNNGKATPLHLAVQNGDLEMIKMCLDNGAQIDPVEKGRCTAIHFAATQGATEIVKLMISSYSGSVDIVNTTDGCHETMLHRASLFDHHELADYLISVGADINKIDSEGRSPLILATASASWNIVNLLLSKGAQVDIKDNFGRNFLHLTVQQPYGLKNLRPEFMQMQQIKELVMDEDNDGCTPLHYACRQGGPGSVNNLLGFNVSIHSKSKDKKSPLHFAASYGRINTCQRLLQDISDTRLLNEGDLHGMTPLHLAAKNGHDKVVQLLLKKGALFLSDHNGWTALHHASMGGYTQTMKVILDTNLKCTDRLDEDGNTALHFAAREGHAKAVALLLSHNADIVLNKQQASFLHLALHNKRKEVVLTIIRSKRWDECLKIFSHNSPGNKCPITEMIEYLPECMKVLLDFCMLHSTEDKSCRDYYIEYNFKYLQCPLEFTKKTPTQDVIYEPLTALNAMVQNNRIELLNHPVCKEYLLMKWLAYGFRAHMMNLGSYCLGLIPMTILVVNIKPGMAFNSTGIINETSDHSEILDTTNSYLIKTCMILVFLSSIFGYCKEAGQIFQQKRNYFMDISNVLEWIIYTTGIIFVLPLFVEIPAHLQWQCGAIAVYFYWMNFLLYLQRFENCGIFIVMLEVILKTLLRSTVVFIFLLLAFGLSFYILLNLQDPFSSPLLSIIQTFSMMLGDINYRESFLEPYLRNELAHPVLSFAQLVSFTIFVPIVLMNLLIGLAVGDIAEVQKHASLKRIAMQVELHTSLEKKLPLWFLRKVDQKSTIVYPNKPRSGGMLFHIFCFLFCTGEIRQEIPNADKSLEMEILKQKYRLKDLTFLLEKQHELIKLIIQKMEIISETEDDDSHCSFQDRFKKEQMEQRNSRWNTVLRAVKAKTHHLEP

EC50 (HsTRPA1 [1])	SMILES	% by which ΔIm at 1000 μM is lower than that of 10 μM CDIAL (HsTRPA1 [2])
2250 nM	CC(=O)O[C@@H]1C=C(C=O)[C@](O)(C=O)[C@@]2(C)CCCC(C)(C)[C@H]12 [CDIAL]	
800 nM	COCCCN(C(=O)CCl)c1nc(-c2ccc(OC)cc2)cs1 [JT010]	
	CC1=COC(=O)C2C(C)CCC12 (stereo not drawn) [nepetalactone]	98.8 ± 0.46%
